The conditions of series [1]: in combination with fulvestrant; cited from earlier work.
For series [2] the following is noted: in combination with letrozole; cited from earlier work.
The test system of a further series is pAKT, pPRAS40, and pS6. In words: downstream PI3K-pathway markers. Format: cell-based. As to conditions: nonclinical studies.
For series [3], the system named is Class I PI3K beta, delta, and gamma isoforms. The settings on record: selectivity of alpha over beta; cited from earlier work.
The subject of series [4] is human breast xenograft models harboring PIK3CA mutations. The experiment in a line: tumor growth in human breast xenograft models harboring PIK3CA mutations. Format: in vivo. As to conditions: nonclinical studies.
The test system of series [5] is tumor cells bearing mutant PI3K. As to conditions: mutant versus WT PI3K cells; cited from earlier work.
Series [6] relates to PIK3CA-mutant breast cancer cell lines. In words: proliferation and apoptosis of PIK3CA-mutant breast cancer cell lines. Format: cell-based. The settings on record: nonclinical studies.

Each structure is given as a SMILES string. Read-outs that look alike come from different tables or passages of the source.

`CC(=O)c1c(C)c2cnc(Nc3ccc(N4CCNCC4)cn3)nc2n(C2CCCC2)c1=O` [palbociclib, 6-acetyl-8-cyclopentyl-5-methyl-2-(5-(piperazin-1-yl)pyridin-2-ylamino)pyrido[2,3-d]pyrimidin-7(8H)-one]: the “patients who required ≥1 dose reduction of palbociclib” value was 34% in series [1] and 36% in series [2].
In the case of `C[C@H](Nc1ccc2c(c1)OCCn1cc(N3C(=O)OC[C@H]3C(F)F)nc1-2)C(N)=O` [GDC-0077, (S)-2-((2-((S)-4-(difluoromethyl)-2-oxooxazolidin-3-yl)-5,6-dihydrobenzo[f]imidazo[1,2-d][1,4]oxazepin-9-yl)amino)propanamide], in the series on pAKT, pPRAS40, and pS6, the “downstream PI3K-pathway markers, including pAKT, pPRAS40, and pS6” value was “reduces downstream PI3K-pathway markers”. Besides, the “less potent biochemical inhibition for other Class I PI3K beta, delta, and gamma isoforms (versus PI3K alpha)” value in series [3] is on record as greater than 300 fold. Besides, the “tumor growth in human breast xenograft models harboring PIK3CA mutations” value in series [4] is listed as “inhibits tumor growth”. Moreover, the “potency in mutant PI3K tumor cells over wild type (WT) PI3K cells” value in series [5] was “increased potency in tumor cells bearing mutant PI3K over wild type (WT) PI3K cells”. In addition, the “proliferation and apoptosis of PIK3CA-mutant breast cancer cell lines” value in series [6] is “inhibits proliferation and induces apoptosis”.
